Here are results for one molecule from patent publication US20250152580A1, “METHODS FOR TREATING IMMUNE DISEASES” (Ascentage Pharma (Suzhou) co., Ltd., priority 2022, published 2025).

SMILES strings stand for the structures. “Also recorded” adds a separate entry of the source.

In experiment [1] the test system is OXA induced atopic dermatitis model. The experiment is described as follows: OXA induced atopic dermatitis (AD) model in C57BL/6 mice. Format: in vivo. Particulars: Cpd. 4 10, 30 and 100 mg/kg po qd day 7-25; dexamethasone 25 μL of 0.09% (w/v) topical qd; compared with Vehicle. An excerpt: Atopic dermatitis (AD) is a chronic skin disease that presents with itching, erythema and squamous lesions. Haptenating agent oxazolone (OXA) sensitization and continuous challenge establish AD like skin inflammation.
Female C57BL/6 mice (6 weeks old) were obtained from Biocytogen Laboratory Animal Co. Ltd. Animals were housed and handled in a temperature-controlled environment with a 12-h light/12-h dark cycle. A total of 48 mice were assigned to 6 groups by randomization based on body weight.
To induce AD-like lesion, all right ears of mice except the G1 sham control group were applied with oxazolone (OXA). Briefly, skin inflammation was induced by topical administration with 25 μL of 0.8% OXA dissolved in acetone on day 0, and repeated 25 μl of 0.4% OXA three times a week from day 7 to 25. G1 sham control group was treated same volume of vehicles. Therapeutic groups as 10 mg/kg, 30 mg/kg and 100 mg/kg Cpd. 4 (po, qd, day 7 to day 25) or 25 μL of 0.09% (w/v) dexamethasone (topical, qd, day 7 to day 25) were applied to the mice. The protocols and procedures involving the care and use of animals were approved by the Institutional Animal Care and Use Committee (IACUC) at Biocytogen (Beijing, China).
Ear thickness of mice was measured before application of Oxa and every other day from day 7 to day 26. […]

The test system of experiment [2] is IMQ induced psoriasis model. Kind of experiment: IMQ induced psoriasis model in Balb/c mice. It is filed as in vivo. Particulars: Cpd. 4 100 mg/kg po qd day 0-6. An excerpt:
Imiquimod (IMQ) is a ligand for TLRs (Toll-like receptors) of immune cells (including macrophages, monocytes and plasmacytoid dendritic cells), and therefore contributes to strong activation of the immune system.
Female Balb/c mice (7-8 weeks old) were obtained from B&K Universal Animal Co. Ltd. Animals were housed and handled in a temperature-controlled environment with a 12-h light/12-h dark cycle. A total of 36 mice were assigned to 4 groups by randomization based on body weight (6 mice in normal control group and 10 mice in other 3 groups).
At the beginning of the study on day 0, five groups were administered a daily topical dose of 80 mg of a cream preparation containing 5% IMQ on their hair-free backs to establish a model of IMQ-induced psoriasis for seven consecutive days. The G1 normal control group received appropriate vaseline.
Mice in Group 1 and Group 2 were treated with vehicle for 7 days (po, qd, from day 0 to day 6). Mice in Group 3 were treated with 100 mg/kg Cpd. 4 for 7 days (po, qd, from day 0 to day 6). Mice in Group 4 were treated with 30 mg/kg tofacitinib for 7 days (po, bid, from day 0 to day 6). The protocols and procedures involving the care and use of animals were approved by the Institutional Animal Care and Use Committee (IACUC) at KCI (Suzhou, China).
The severity of skin inflammation was monitored and graded using a modified human scoring system Psoriasis Area Severity Index (PASI). Scaling, thickness, and erythema were scored separately on a scale from 0 to 4:0, none; 1, slight; 2, moderate; 3, marked; and 4, very marked. The total score denotes severity of inflammation. Ear thickness of mice was measured every day from day 0 to day 7.
Ear thickness of mice was measured every day from day 0 to day 7. […] Compared with G1 normal control group, after IMQ treatment, ear swelling was observed indicated by increased ear thickness in G2 group reaching the maximal ear thickness to 0.40±0.02 mm on day 7. Cpd.

Regarding `O=C(NS(=O)(=O)c1ccc(NC[C@H]2COCCO2)c([N+](=O)[O-])c1)c1ccc(N2CCN(CC3=C(c4ccc(Cl)cc4)CC4(CCC4)CC3)CC2)cc1Oc1cnc2[nH]ccc2c1` [Cpd. 4, (S)-N-((4-(((1,4-dioxan-2-yl)methyl)amino)-3-nitrophenyl)sulfonyl)-2-((1H-pyrrolo[2,3-b]pyridin-5-yl)oxy)-4-(4-((6-(4-chlorophenyl)spiro[3.5]non-6-en-7-yl)methyl)piperazin-1-yl)benzamide], the ear thickness entry in experiment [1] was “significantly reducing the ear thickness; also recorded: significantly reduced”; in experiment [2] (compared with Vehicle (0.40±0.02 mm day 7) and tofacitinib 30 mg/kg po bid), “significantly reducing the ear thickness; also recorded: comparable to that of tofacitinib; also recorded: significantly reduced”. Moreover, the “PASI score (Psoriasis Area Severity Index)” value in experiment [2] (tofacitinib 30 mg/kg po bid, compared with Vehicle) is reported as “significantly reducing the clinical PASI score; also recorded: significantly reduced”.
